In patent US10414798B2, “Cancer stem cell targeting peptide and use thereof” (AGRICULTURAL TECHNOLOGY RESEARCH INSTITUTE, priority 2015, dated 2019):
Entries after “also recorded” stand apart in the source; their conditions may differ.

Assays:
Hepa1-6 CSCs [1] = assay: M13 phage display selection, secondary Hepa1-6 CSC HP-library; assay type: binding, mouse; conditions: from Table 1
Method: (§1) The M13 PhD-7 library (NEB, E8100) which contains 10^9 independent clones was purchased from New England Biolabs Inc. 10^13 plaque firming units (pfus) of M13 PhD-7 phages in 10 mL DMEM were pre-adsorbed by cancer cells in a T75 flask twice, each for 1 hour. Subsequently, the supernatant was transferred to a T25 flask containing 5×10^6 CSCs and incubated for 1 hour. The unbound and weakly associated phages were removed by centrifugation and suspension three times in DMEM/0/2% BSA. The cell pellet was suspended in 1 mL PBS containing 10^9 E. coli ER2738 and incubated in a shaker for 1 hour. Then 10 mL LB/5 mM MgCl2 was added. After being cultured over-night at 37° C., the cells were removed by centrifugation and phages in the supernatant were titrated. The aforementioned selection procedures were carried out for three rounds for EMT6 and PANC-1 to obtain the primary EMT6 CSC homing peptide (HP)- and PANC-1 CSC HP-library, respectively. Subsequently, M13 plaques were picked up to prepare the DNA for sequencing. […]
(§2) The primary CSC HP-library was selected directly once by either CT26 or Hepa1-6 CSCs to test the bias of CSC HP affinities to different kinds of cancers. […] Two new peptide sequences, KIYTTLD (CSC HP-9) (SEQ ID NO: 11) and NLQPPAY (CSC HP-12) (SEQ ID NO: 12), were read in the ESC unbound fraction (CSC HP-library) (Table 1).

cancer cells (CCs) = assay: Parallel CC experiments with labeled CSC HPs; assay type: binding, mouse; conditions: N-terminal rhodamine B or fluorescein conjugate, fluorescence
Method: (§3) 20 μg/mL of Rhodamine B labeled CSC HP1 (Rd-CSC HP-1) and CSC HP2 (Rd-CSC HP-2) as well as FITC labeled CSC HP11 (FITC-CSC HP-11) were directly used to stain EMT6 CSCs and CCs. Cells were counter-stained with DAPI.
(§4) According to the results above, CSC HP-1, CSC HP-2, CSC HP-3, CSC HP-8, CSC HP-9, CSC HP-10, and CSC HP-11 were selected and chemically synthesized with N-terminal conjugation with rhodamine B or fluorescein. […] It was of interest to determine whether these CSC HPs derived from mouse cancers could recognize human CSCs.

[2] = Glycan microarray analysis; assay type: binding; conditions: biotin-CSC HP, Cy3-streptavidin
Method: (§5) N-terminus biotin conjugated CSC HPs with the sequences listed in Table A below were synthesized by GeneDirex with purities higher than 95%. Biotin-CSC HPs were dissolved in DMSO to prepare 10 mg/mL stocks.
Glycan Array 100 microchips (Cat. # GA-Glycan-100) were purchased from RayBiotech and were processed following the manufacturer's instruction with some modifications. Briefly, after blocking with 400 μL Sample Diluent (Item E) at room temperature for 30 minutes, the biotin conjugated CSC HPs were diluted to 1 μg/400 μL with Sample Diluent, and hybridization reactions were carried out at room temperature for 2 hours. After washing, 400 μL of 1×Cy3-conjugated streptavidin was added to each well. The incubation chamber was covered with the plastic adhesive strips and the slide was covered with aluminum foil to avoid exposure to light during incubating in a dark room. The slide was incubated with Cy3-conjugated streptavidin at room temperature for 1 hour with gentle rocking or shaking. After thorough washing, the slide was drained completely, and the fluorescent signals on it were read by laser scanner Axon GenePix. The relative intensity on glycan X was defined as (average of X−negative control)/(positive control−negative control)×100%.
The CSC HPs developed could distinguish CSCs from CCs, and this phenomenon was found cross-species between human and mouse. It was very interesting to figure out the targets of these CSC HPs. There were no detectable fluorescent signals of FITC-CSC HPs remaining on the nitrocellulose membrane that had been blotted with CSC membrane proteins separated by SDS PAGE (data not shown). Glycan microarray (Glycan Array 100 microchips), on which 100 kinds of oligosaccharides were spotted 4 times, was utilized to analyze the possibilities of the interactions between oligosaccharides and CSC HPs. Biotin-CSC HPs as listed in Table 2 were hybridized with glycans on chips. The biotin-CSC HPs trapped on the chips were explored with Cy3-conjugated streptavidin, and the fluorescent signals on it were read by a laser scanner. Two major patterns were illustrated in FIGS. 3A-3F. The first one included glycan 16 (Gal-β-1,4-Glc-β-), 18 (Gal-α-1,4-Gal-β-1,4-Glc-β-), and 26 (GalNAc-β-1,3-Gal-α-1,4-Gal-β-1,4-Glc-β-) Globo series (FIG. 3A). Typical cases were CSC HP-1 and CHC HP-hP1 (FIG. 3C). […] The typical cases were CSC HP5, CSC HP6, CSC HP7, and CSC HP9 (FIG. 3C). Two malignancy and metastasis glycan markers, glycan 63 (Fuc-α-1,2-Gal-β-1,4-(Fuc-α-1,3)-GlcNAc-β-, also called Lewis Y epitope) and glycan 69 (Neu5Ac-α-2,6-Gal-β-1,3-(Neu5Ac-α-2,6)-GalNAc-β-), were also detected. […] Both of the two Neu5Ac-α-2,6-residues were necessary for CSC HPs binding (FIG. 3E).

PANC-1 CSCs = assay: Staining of tumorospheres with rhodamine B or fluorescein labeled CSC HPs; assay type: binding, human; conditions: N-terminal rhodamine B or fluorescein conjugate, fluorescence
Method: [The procedure below names another cell line; the source lists this cell line under the same test.] as §3, §4

Hepa1-6 CSCs [3] = assay: Staining of CSCs with rhodamine B or fluorescein labeled CSC HPs; assay type: binding, mouse; conditions: N-terminal rhodamine B or fluorescein conjugate, fluorescence
Method: [The procedure below names another cell line; the source lists this cell line under the same test.] as §3, §4

CT26 CSCs [4] = assay: as above; assay type: binding, mouse; conditions: N-terminal rhodamine B or fluorescein conjugate, fluorescence
Method: [The procedure below names another cell line; the source lists this cell line under the same test.] as §3, §4

EMT6 CSCs = assay: as above; assay type: binding, mouse; conditions: N-terminal rhodamine B or fluorescein conjugate, fluorescence
Method: as §3, §4

[5] = system: mouse embryonic stem cell (mESC); assay: M13 phage display selection, secondary CSC/ESC HP-library (ESC bound fraction); assay type: binding
Method: as §1, §2

[6] = Glycan microarray analysis, major signal pattern; assay type: binding; conditions: biotin-CSC HP, Cy3-streptavidin
Method: as §5
Glycan Array 100 microchips (Cat. # GA-Glycan-100) were purchased from RayBiotech and were processed following the manufacturer's instruction with some modifications. Briefly, after blocking with 400 μL Sample Diluent (Item E) at room temperature for 30 minutes, the biotin conjugated CSC HPs were diluted to 1 μg/400 μL with Sample Diluent, and hybridization reactions were carried out at room temperature for 2 hours. After washing, 400 μL of 1×Cy3-conjugated streptavidin was added to each well. […] After thorough washing, the slide was drained completely, and the fluorescent signals on it were read by laser scanner Axon GenePix. […]
The CSC HPs developed could distinguish CSCs from CCs, and this phenomenon was found cross-species between human and mouse. […] The biotin-CSC HPs trapped on the chips were explored with Cy3-conjugated streptavidin, and the fluorescent signals on it were read by a laser scanner. […] Two malignancy and metastasis glycan markers, glycan 63 (Fuc-α-1,2-Gal-β-1,4-(Fuc-α-1,3)-GlcNAc-β-, also called Lewis Y epitope) and glycan 69 (Neu5Ac-α-2,6-Gal-β-1,3-(Neu5Ac-α-2,6)-GalNAc-β-), were also detected. […]

CT26 CSCs [7] = assay: M13 phage display selection, secondary CT26 CSC HP-library; assay type: binding, mouse; conditions: from Table 1
Method: as §1, §2

Substance | detection in parallel CC experiments (cancer cells (CCs)) | binding to glycan 26 [2] | association with PANC-1 tumorospheres (PANC-1 CSCs) | association with Hepa1-6 CSCs (Hepa1-6 CSCs [3]) | association with CT26 CSCs (CT26 CSCs [4]) | association with EMT6 CSCs (EMT6 CSCs) | signal on glycan 69 [2] | binding to glycan 19 [2] | further results
FSGGGNH (Cancer Stem Cell Targeting Peptide) [CSC HP-3, synthetic peptide that targets cancer stem cells] | not detectable | weakly bound | definitely associated | specifically associated | specifically associated | specifically associated | – | – | bias of CSC HP affinity to Hepa1-6 CSCs (Hepa1-6 CSCs [1]): more specific
YHQVKPH (Cancer Stem Cell Targeting Peptide) [CSC HP-hP3, synthetic peptide that targets cancer stem cells] | – | – | – | – | – | – | higher signals | – | –
GMMSSPP (Cancer Stem Cell Targeting Peptide) [CSC HP-2, synthetic peptide that targets cancer stem cells] | not detectable | – | definitely associated | specifically associated | specifically associated | specifically associated | – | – | –
ATYGNLW (Cancer Stem Cell Targeting Peptide) [CSC HP-5, synthetic peptide that targets cancer stem cells] | – | – | – | – | – | – | – | bound strongly | –
YHMPALM (Cancer Stem Cell Targeting Peptide) [CSC HP-6, synthetic peptide that targets cancer stem cells] | – | – | – | – | – | – | – | bound strongly | –
KIYTTLD (Cancer Stem Cell Targeting Peptide) [CSC HP-9, synthetic peptide that targets cancer stem cells] | not detectable | – | definitely associated | specifically associated | specifically associated | specifically associated | higher signals | bound strongly | –
GLAPFNA (Cancer Stem Cell Targeting Peptide) [CSC HP-11, synthetic peptide that targets cancer stem cells] | not detectable | – | definitely associated | specifically associated | specifically associated | specifically associated | higher signals | – | –
SQPTWMF (Cancer Stem Cell Targeting Peptide) [CSC HP-1, synthetic peptide that targets cancer stem cells] | not detectable | bound strongly and specifically | definitely associated | specifically associated | specifically associated | specifically associated | – | – | enrichment in the ESC bound fraction [5]: further enriched; binding / signal on glycan 63 [2]: higher signals; also recorded: bound more strongly; major pattern of glycan microarray signals [6]: Globo series
GSPVMSW (Cancer Stem Cell Targeting Peptide) [CSC HP-hP2, synthetic peptide that targets cancer stem cells] | – | – | – | – | – | – | higher signals | – | –
GPKVTIW (Cancer Stem Cell Targeting Peptide) [CSC HP-hP1, synthetic peptide that targets cancer stem cells] | – | bound strongly and specifically | – | – | – | – | – | – | binding / signal on glycan 63 [2]: higher signals; also recorded: bound more strongly; major pattern of glycan microarray signals [6]: Globo series
ELTPLTL (Cancer Stem Cell Targeting Peptide) [CSC HP-8, synthetic peptide that targets cancer stem cells] | not detectable | weakly bound | definitely associated | specifically associated | specifically associated | specifically associated | – | – | bias of CSC HP affinity to CT26 CSCs (CT26 CSCs [7]): more specific
GPSASRN (Cancer Stem Cell Targeting Peptide) [CSC HP-10, synthetic peptide that targets cancer stem cells] | not detectable | – | definitely associated | specifically associated | specifically associated | specifically associated | higher signals | – | –
HGGVRLY (Cancer Stem Cell Targeting Peptide) [CSC HP-7, synthetic peptide that targets cancer stem cells] | – | – | – | – | – | – | – | bound strongly | –
